Experimental data as given in BindingDB's records for doi:10.1021/ml500238q (University of Bonn, 2014).

Molecular target: Cathepsin K (Homo sapiens) (UniProt P43235)
Assay: Inhibition of human cathepsin K using Z-Leu-Arg-AMC fluorogenic substrate incubated for 60 mins

| Compound | Ki |
| --- | --- |
| CN(Cc1ccccc1)C(=O)CN(C#N)NC(=O)OC(C)(C)C | 4.2 pM |
| CN(C(=O)OC(C)(C)C)N(C#N)CC(=O)N1CCOCC1 | 31000 pM |
| CC(C)(C)OC(=O)NN(C#N)CC(=O)N(Cc1ccccc1)Cc1ccccc1 | 1.43 pM |
| CC(C)(C)OC(=O)NN(C#N)CC(=O)N1CCOCC1 | 11 pM |
